Reference: ChEMBL document CHEMBL1777768, “Comparative CYP1A1 and CYP1B1 substrate and inhibitor profile of dietary flavonoids” (Bioorg Med Chem, 2011)
Active and inactive are the calls of the source. The calls are words filed in the database; no cut-off is given here.

What was measured:
Cytochrome P450 1A1 [1] = target: T1, Cytochrome P450 1A1 (Homo sapiens, UniProt P04798); test: Inhibition of CYP1A1 EROD activity assessed as inhibition of deethylation of 7-ethoxyresorufin to resorufin; assay type: ADME
T1 sequence (P04798 whole entry): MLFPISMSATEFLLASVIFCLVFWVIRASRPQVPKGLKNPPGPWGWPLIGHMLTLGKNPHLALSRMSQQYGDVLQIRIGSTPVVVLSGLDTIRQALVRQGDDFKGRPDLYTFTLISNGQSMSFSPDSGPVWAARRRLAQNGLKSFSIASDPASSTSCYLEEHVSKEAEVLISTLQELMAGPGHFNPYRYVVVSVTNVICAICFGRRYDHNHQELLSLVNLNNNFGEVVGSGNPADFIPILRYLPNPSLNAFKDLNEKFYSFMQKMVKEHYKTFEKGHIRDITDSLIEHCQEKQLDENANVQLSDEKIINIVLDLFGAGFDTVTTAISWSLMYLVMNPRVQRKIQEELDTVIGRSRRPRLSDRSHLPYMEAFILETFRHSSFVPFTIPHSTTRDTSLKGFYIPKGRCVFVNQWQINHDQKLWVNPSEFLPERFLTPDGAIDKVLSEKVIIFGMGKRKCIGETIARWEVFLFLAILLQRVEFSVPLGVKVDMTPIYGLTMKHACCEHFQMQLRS

Cytochrome P450 1B1 = target: T2, Cytochrome P450 1B1 (Homo sapiens, UniProt Q16678); test: Inhibition of CYP1B1 EROD activity assessed as inhibition of deethylation of 7-ethoxyresorufin to resorufin; assay type: ADME
T2 sequence (Q16678 whole entry): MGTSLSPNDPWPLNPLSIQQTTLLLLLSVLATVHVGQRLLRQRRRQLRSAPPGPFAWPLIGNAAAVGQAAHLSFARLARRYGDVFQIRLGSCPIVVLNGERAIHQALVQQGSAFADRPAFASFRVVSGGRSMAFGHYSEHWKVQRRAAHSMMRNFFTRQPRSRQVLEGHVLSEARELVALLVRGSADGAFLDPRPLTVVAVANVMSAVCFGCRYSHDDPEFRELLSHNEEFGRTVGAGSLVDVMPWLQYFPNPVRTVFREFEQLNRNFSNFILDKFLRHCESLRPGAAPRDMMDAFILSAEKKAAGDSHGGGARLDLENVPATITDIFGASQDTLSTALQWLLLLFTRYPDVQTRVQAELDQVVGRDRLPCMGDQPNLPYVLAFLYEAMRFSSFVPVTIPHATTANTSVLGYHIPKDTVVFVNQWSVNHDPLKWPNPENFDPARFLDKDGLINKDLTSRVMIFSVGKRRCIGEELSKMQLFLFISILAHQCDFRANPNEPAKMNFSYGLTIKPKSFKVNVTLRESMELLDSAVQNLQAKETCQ

CYP1A1 = target: T3, CYP1A1 (Homo sapiens, UniProt P04798); test: Activity at CYP1A1 in recombinant human CYP1A1 microsomes assessed as parent compound remaining after 20 mins by HPLC analysis
T3 sequence (P04798 whole entry): T1 sequence (P04798 whole entry)

MDA-MB-468 [2] = test: Activation factor, ratio of IC50 for non-CYP1 expressing human MCF10A to IC50 for CYP1 expressing human MDA-MB-468 cells; assay type: functional
MDA-MB-468 [3] = test: Anticancer activity against CYP1 expressing human MDA-MB-468 cells by MTT assay; assay type: functional, cell-based
MCF-10A = test: Anticancer activity against non-CYP1 expressing human MCF10A cells by MTT assay; assay type: functional, cell-based
[4] = target: Cytochrome P450 1B1 (Homo sapiens) (UniProt Q16678); test: Activity at recombinant CYP1B1 assessed as E5M1 metabolite elution time at 10 uM by HPLC analysis; details: recombinant enzyme
Cytochrome P450 1A1 [5] = target: T1, Cytochrome P450 1A1; test: Activity at recombinant CYP1A1 assessed as E5M1 metabolite elution time at 10 uM by HPLC analysis; assay type: ADME; details: recombinant enzyme
Cytochrome P450 1A1 [6] = target: T1, Cytochrome P450 1A1; test: Activity at recombinant CYP1A1 assessed as AM1 metabolite production at 10 uM after 20 mins by HPLC analysis; assay type: ADME; details: recombinant enzyme
Cytochrome P450 1A1 [7] = target: T1, Cytochrome P450 1A1; test: Activity at recombinant CYP1A1 assessed as apigenin production at 10 uM after 20 mins by HPLC analysis; assay type: ADME; details: recombinant enzyme
Cytochrome P450 1A1 [8] = target: T1, Cytochrome P450 1A1; test: Activity at recombinant CYP1A1 assessed as luteolin production at 10 uM after 20 mins by HPLC analysis; assay type: ADME; details: recombinant enzyme
Cytochrome P450 1A1 [9] = target: T1, Cytochrome P450 1A1; test: Activity at recombinant CYP1A1 assessed as scutellarein production at 10 uM after 20 mins by HPLC analysis; assay type: ADME; details: recombinant enzyme
Cytochrome P450 1A1 [10] = target: T1, Cytochrome P450 1A1; test: Activity at recombinant CYP1A1 assessed as AM1 metabolite retention time at 10 uM by HPLC analysis; assay type: ADME; details: recombinant enzyme

Ki (Cytochrome P450 1A1 [1]) [nM]	Ki (Cytochrome P450 1B1) [nM]	remaining at 20 min (CYP1A1) [%]	Structure (SMILES)	Ratio IC50 (MDA-MB-468 [2])	further results
210	35	47.8	COc1ccc(-c2cc(=O)c3c(O)c(OC)c(OC)cc3o2)cc1O [EUPATORIN]	100	–
–	–	15.9	O=c1cc(-c2ccccc2)oc2cc(O)cc(O)c12 [CHRYSIN]	–	–
1640	220	12.6	O=c1cc(-c2ccc(O)cc2)oc2cc(O)c(O)c(O)c12 [SCUTELLAREIN]	3.3	–
1220	260	–	O=c1cc(-c2ccccc2)oc2cc(O)c(O)c(O)c12 [BAICALEIN]	1.7	–
630	670	20.4	COc1ccc(-c2cc(=O)c3c(OC)c(OC)c(OC)cc3o2)cc1O	100	Activity (MDA-MB-468 [3]): Active; Activity (MCF-10A): inactive; Time [4]: 8.9 min; Time (Cytochrome P450 1A1 [5]): 8.9 min
–	–	15.9	COc1ccc(-c2cc(=O)c3c(O)cc(O)cc3o2)cc1 [ACACETIN]	–	Activity (Cytochrome P450 1A1 [6]): Active; Activity (Cytochrome P450 1A1 [7]): Active; Activity (Cytochrome P450 1A1 [8]): Active; Activity (Cytochrome P450 1A1 [9]): Active; Time (Cytochrome P450 1A1 [10]): 11.3 min
–	–	68.9	COc1ccc(-c2cc(=O)c3c(OC)c(OC)c(OC)cc3o2)cc1OC [SINENSETIN]	325	–
> 800	> 800	16.7	COc1cc2oc(-c3ccc(O)c(O)c3)cc(=O)c2c(O)c1OC [CIRSILIOL]	8	–
> 2340	> 2340	34	COc1cc(O)c2c(=O)cc(-c3ccc(O)cc3)oc2c1 [GENKWANIN]	47	–

Structure (SMILES)	Ki (Cytochrome P450 1A1 [1]) [nM]	Ki (Cytochrome P450 1B1) [nM]	remaining at 20 min (CYP1A1) [%]	Ratio IC50 (MDA-MB-468 [2])	further results
O=c1c(O)c(-c2cc(O)c(O)c(O)c2)oc2cc(O)cc(O)c12 [MYRICETIN]	370	27	–	–	–
